{"source": "patent US10555987B2", "about": "“GHRH agonists for the treatment of ischemic disorders” (UNIVERSITY OF MIAMI, priority 2012, dated 2020)", "key": {"GHRH receptor": {"biological_target": "T1, GHRH receptor (Homo sapiens, UniProt Q02643)", "T1 sequence (Q02643 23-423)": "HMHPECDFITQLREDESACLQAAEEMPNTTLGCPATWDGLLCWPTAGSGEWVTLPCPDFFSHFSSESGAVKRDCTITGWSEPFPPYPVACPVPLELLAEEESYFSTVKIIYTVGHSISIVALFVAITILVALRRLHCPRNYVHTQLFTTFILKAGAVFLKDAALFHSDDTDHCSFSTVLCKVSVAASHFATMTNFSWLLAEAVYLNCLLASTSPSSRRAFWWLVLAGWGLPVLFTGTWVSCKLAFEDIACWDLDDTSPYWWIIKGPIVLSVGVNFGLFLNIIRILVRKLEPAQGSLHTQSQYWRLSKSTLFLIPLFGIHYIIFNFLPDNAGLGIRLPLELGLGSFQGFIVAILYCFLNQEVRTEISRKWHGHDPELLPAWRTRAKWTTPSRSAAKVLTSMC", "assay": "GHRH receptor binding, competition with 125I-labeled JV-1-42, human pituitary membrane homogenates (Table 5)", "set-up": "Normal human pituitaries were purchased from the National Hormone and Peptide Program; tissue National Hormone and Peptide Program (A.F. Parlow, Harbor-UCLA Medical Center, Torrance, Calif.); host or cells: normal human pituitary, membrane fraction"}, "GH release": {"test_system": "GH release", "assay": "GH releasing potency in vivo, intravenous administration (Example 14, Table 13)", "set-up": "species or system rat", "conditions": "i.v.", "how_it_was_run": "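Potency is expressed relative to GHRH(1-29)NH2 and JI-38 (each = 1), via equivalent GHRH(1-29)NH2 dose read from a standard curve. Peptides in 5% mannitol given i.v. or s.c. to anaesthetised male Sprague-Dawley rats (200-250 g); serum GH measured by ELISA at selected times.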"}, "[1]": {"test_system": "myocardial infarction (Fisher-344 rats)", "assay": "Immunostaining of heart tissue (pH3, c-kit, arterioles), rat MI model (Example 13)", "type": "in vivo", "method": "Myocardial infarction (MI) was induced by permanent ligation of the left coronary artery in female 6-month-old Fisher-344 rats. Animals were randomly assigned to receive placebo (DMSO+propylene glycol) or one of the GHRH-agonists (JI-38, MR-356/P-20356, MR-409/P-27409, all 50 μg/kg), starting 4 weeks post-MI. All treatment was given subcutaneously twice daily for 4 weeks.\nParaffin sections were deparaffinized and rehydrated by immersion in xylene followed by a graded series of ethanol. Antigen retrieval was performed by a heat-induced method with citrate buffer (Dako, Carpinteria, Calif.). After blocking with 10% normal donkey serum, sections were incubated with a primary antibody at 37° C. for 1 hour, followed by application of secondary antibody. Omission of the primary antibodies on parallel sections was used as negative control. Nuclei were counterstained with DAPI (Invitrogen, Carlsbad, Calif.). The total numbers of positively-stained cells (c-kit, CD45, phospho-histone H3 [pH3]) were quantified per slide to calculate the number of cells per section on each sample. Morphometric analysis was performed using Adobe Photoshop CS3 (San Jose, Calif.).\nHeart sections were co-stained with isolectin (endothelial cell marker) and vascular smooth muscle (SMA22a) to identify arterioles which play a crucial role in cardiac repair. […] An inverse correlation between number of arterioles and infarct size was observed (FIG. 5C)."}, "[2]": {"test_system": "myocardial infarction (Fischer 344 rats)", "assay": "Morphometric analysis, percentage of infarcted myocardium (Example 14)", "type": "in vivo, rat", "conditions": "vs. placebo, FIG. 8; listed as MR-356", "method": "(§1) MI was induced in female 6-month-old Fischer 344 rats by permanent ligation of left ventricular (LV) anterior descending coronary artery. Animals were randomly assigned to receive placebo or one of the following GHRH agonists (MR-356, MR-361, MR-367, MR-403, MR-404, MR-409 and MR-502) starting 2 hours post-surgery. All treatment (50 μg/kg) was given subcutaneously twice daily for 4 weeks. The Institutional Animal Care and Use committee of the University of Miami approved all protocols and experimental procedures.\nSlides were prepared with H&E and Masson's trichrome stain to assess cardiac structure and the presence and extent of myocardial scar, respectively. The percentage of infarcted myocardium was calculated."}, "[3]": {"test_system": "myocardial infarction (Fischer 344 rats)", "assay": "Echocardiography in rat MI model, treatment from 2 hours post-surgery (Example 14)", "type": "in vivo", "conditions": "echocardiographic measurements at day 2 post-MI", "method": "as §1\nLongitudinal evaluation of LV remodeling was obtained by echocardiographic measurements between baseline and 4 weeks following MI. Echocardiographic assessments were performed in anesthetized rats (1-2% isoflurane inhalation) using a Vevo-770 echocardiogram (Visual Sonics Inc., Toronto, Ontario, Canada) equipped with 25 MHz transducer. Cardiac dimensions were recorded from M-mode images using averaged measurements from 3 to 5 consecutive cardiac cycles. LV end-diastolic and end-systolic volumes and ejection fraction (EF) were calculated from bi-dimensional long-axis parasternal views taken through the infarcted area. All images were analyzed using Vevo 770 3.0.0 software (Visual Sonics)."}, "[4]": {"conditions": "50 μg/kg s.c. twice daily for 4 weeks, mean ± SEM"}}, "note": "Entries after “also recorded” stand apart in the source; their conditions may differ. Non-standard residues stand in square brackets, D forms with d. Residues, ends and D or L forms follow the SMILES beside them. *: point of attachment. NMeY = CN[C@@H](Cc1ccc(O)cc1)C(=O)O; Agmatine = N=C(N)NCCCCN*; Nle = CCCC[C@H](N)C(=O)O; Orn = NCCC[C@H](N)C(=O)O; Abu = CC[C@H](N)C(=O)O"}
{"smiles": "CCCC[C@H](NC(=O)[C@@H](NC(=O)[C@H](CC(=O)O)NC(=O)[C@H](CCC(N)=O)NC(=O)[C@H](CC(C)C)NC(=O)[C@H](CC(C)C)NC(=O)[C@H](CCCN)NC(=O)[C@H](CCCNC(=N)N)NC(=O)[C@H](C)NC(=O)[C@H](CO)NC(=O)[C@H](CC(C)C)NC(=O)[C@H](CCC(N)=O)NC(=O)[C@H](CC)NC(=O)[C@H](CC(C)C)NC(=O)[C@@H](NC(=O)[C@H](CCCN)NC(=O)[C@H](CCCNC(=N)N)NC(=O)[C@H](Cc1ccc(O)cc1)NC(=O)[C@H](CO)NC(=O)[C@H](CCC(N)=O)NC(=O)[C@@H](NC(=O)[C@H](Cc1ccccc1)NC(=O)[C@@H](NC(=O)[C@H](C)NC(=O)[C@H](CC(=O)O)NC(=O)[C@H](C)NC(=O)[C@H](Cc1ccc(O)cc1)NC)[C@@H](C)CC)[C@@H](C)O)C(C)C)[C@@H](C)CC)C(=O)N[C@@H](CC(=O)O)C(=O)NCCCCNC(=N)N", "note": "[Peptide P-20356, [N—Me-Tyr^1, Gln^8, Orn^12, Abu^15, Orn^21, Nle^27, Asp^28, Agm^29]hGHRH(1-29) NH2] (H-[NMeY]ADAIFTQSYR[Orn]VL[Abu]QLSAR[Orn]LLQDI[Nle]D-Agmatine)", "values": [{"measurement": "Relative affinity (Binding potency) vs GHRH", "setting": "GHRH receptor; GHRH(1-29) = 1, Table 5", "value": 406.0}, {"measurement": "Relative affinity (Binding potency) vs JI-38", "setting": "GHRH receptor; JI-38 = 1, Table 5", "value": 171}, {"measurement": "Relative potency, 5 min", "setting": "GH release; 5 min, JI-38 = 1", "value": 1.17}, {"measurement": "Relative potency, 15 min", "setting": "GH release; 15 min, JI-38 = 1", "value": 1.26}, {"measurement": "Serum GH level at selected time after injection (ng/ml), 0 min", "setting": "GH release; dose 1 μg/kg, 0 min, mean ± SEM", "value": "37.8 ± 5.7", "unit": "ng/mL"}, {"measurement": "Serum GH level at selected time after injection (ng/ml), 5 min", "setting": "GH release; dose 1 μg/kg, 5 min, mean ± SEM", "value": "632 ± 110", "unit": "ng/mL"}, {"measurement": "Serum GH level at selected time after injection (ng/ml), 15 min", "setting": "GH release; dose 1 μg/kg, 15 min, mean ± SEM", "value": "250 ± 58.1", "unit": "ng/mL"}, {"measurement": "c-kit (positive cells in the heart)", "setting": "[1]; [4]", "value": "59 ± 7.1"}, {"measurement": "phospho H3 (positive cells in the heart)", "setting": "[1]; [4]", "value": "65 ± 9.3"}, {"measurement": "number of arterioles", "setting": "[1]; isolectin / SMA22a co-staining of heart sections", "value": "significantly increased"}, {"measurement": "infarct size (MI %)", "setting": "[2]", "value": "significantly attenuated; also recorded: substantial reductions"}, {"measurement": "EF at day 2 post-MI", "setting": "[3]", "value": "slightly better preserved"}]}
